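Dose response: 5 concentrations. Exposure: 48 h. Format: 96-well plates. Endpoint: linear interpolation; highest concentration if not reached. Here, GI50 denotes the concentration required for 50% inhibition of growth. The concentration for full growth arrest is given as TGI.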
Assays:
Experiment in all cases: growth of human tumour cells (NCI), 48 h
COLO 205 colon = tested on: COLO 205 colon
HOP-62 NSCLC = tested on: HOP-62 NSCLC
U251 CNS = tested on: U251 CNS
HOP-92 NSCLC = tested on: HOP-92 NSCLC
HCT-116 colon = tested on: HCT-116 colon
MDA-MB-435 = tested on: MDA-MB-435
A549 NSCLC = tested on: A549 NSCLC
DU-145 prostate = tested on: DU-145 prostate
MCF7 breast = tested on: MCF7 breast
UACC-257 melanoma = tested on: UACC-257 melanoma
SK-MEL-5 melanoma = tested on: SK-MEL-5 melanoma
KM12 colon = tested on: KM12 colon
OVCAR-5 ovarian = tested on: OVCAR-5 ovarian
PC-3 prostate = tested on: PC-3 prostate
ACHN renal = tested on: ACHN renal
MALME-3M melanoma = tested on: MALME-3M melanoma
EKVX NSCLC = tested on: EKVX NSCLC
SN12C renal = tested on: SN12C renal
SNB-19 CNS = tested on: SNB-19 CNS
SNB-75 CNS = tested on: SNB-75 CNS
SR leukemia = tested on: SR leukemia
SK-OV-3 ovarian = tested on: SK-OV-3 ovarian
MDA-MB-231 breast = tested on: MDA-MB-231 breast
K-562 leukemia = tested on: K-562 leukemia
LOX IMVI melanoma = tested on: LOX IMVI melanoma
UACC-62 melanoma = tested on: UACC-62 melanoma
HT29 colon = tested on: HT29 colon
HCT-15 colon = tested on: HCT-15 colon
SF-539 CNS = tested on: SF-539 CNS
RPMI-8226 leukemia = tested on: RPMI-8226 leukemia
TK-10 renal = tested on: TK-10 renal
SW-620 colon = tested on: SW-620 colon
UO-31 renal = tested on: UO-31 renal
HL-60(TB) leukemia = tested on: HL-60(TB) leukemia
HS 578T breast = tested on: HS 578T breast
OVCAR-4 ovarian = tested on: OVCAR-4 ovarian
NCI-H23 lung = tested on: NCI-H23 lung
T-47D breast = tested on: T-47D breast
SK-MEL-28 melanoma = tested on: SK-MEL-28 melanoma
MOLT-4 leukemia = tested on: MOLT-4 leukemia
CCRF-CEM leukemia = tested on: CCRF-CEM leukemia
OVCAR-8 ovarian = tested on: OVCAR-8 ovarian
M14 melanoma = tested on: M14 melanoma
SK-MEL-2 melanoma = tested on: SK-MEL-2 melanoma
NCI-H226 lung = tested on: NCI-H226 lung
SF-268 CNS = tested on: SF-268 CNS
786-0 renal = tested on: 786-0 renal
NCI-H522 lung = tested on: NCI-H522 lung
SF-295 CNS = tested on: SF-295 CNS
IGROV1 ovarian = tested on: IGROV1 ovarian
CAKI-1 renal = tested on: CAKI-1 renal
NCI/ADR-RES ovarian = tested on: NCI/ADR-RES ovarian
BT-549 breast = tested on: BT-549 breast
NCI-H460 lung = tested on: NCI-H460 lung
RXF 393 renal = tested on: RXF 393 renal

With `COC(=O)c1cnc(Cl)cn1` the TGI (COLO 205 colon) was over 100 µM, the TGI (HOP-62 NSCLC) was over 100 µM and the TGI (U251 CNS) was over 100 µM. For the same compound, the TGI (HOP-92 NSCLC) was over 100 µM, the TGI (HCT-116 colon) was over 100 µM and the TGI (MDA-MB-435) was over 100 µM. For the same compound, the TGI (A549 NSCLC) was over 100 µM, the TGI (DU-145 prostate) was over 100 µM and the TGI (MCF7 breast) was 95.5 µM. The TGI (UACC-257 melanoma) was over 100 µM, the TGI (SK-MEL-5 melanoma) was over 100 µM and the TGI (KM12 colon) was over 100 µM. It also gave a TGI (OVCAR-5 ovarian) of over 100 µM, a TGI (PC-3 prostate) of over 100 µM and a TGI (ACHN renal) of over 100 µM. It also gave a TGI (MALME-3M melanoma) of over 100 µM, a TGI (EKVX NSCLC) of over 100 µM and a TGI (SN12C renal) of over 100 µM. The TGI (SNB-19 CNS) was over 100 µM, the TGI (SNB-75 CNS) was over 100 µM and the TGI (SR leukemia) was over 100 µM. For the same compound, the TGI (SK-OV-3 ovarian) was over 100 µM, the TGI (MDA-MB-231 breast) was over 100 µM and the TGI (K-562 leukemia) was over 100 µM. It also gave a TGI (LOX IMVI melanoma) of over 100 µM, a TGI (UACC-62 melanoma) of over 100 µM and a TGI (HT29 colon) of over 100 µM. It also gave a TGI (HCT-15 colon) of 38.5 µM, a TGI (SF-539 CNS) of over 100 µM and a TGI (RPMI-8226 leukemia) of 59 µM. It also gave a TGI (TK-10 renal) of over 100 µM, a TGI (SW-620 colon) of over 100 µM and a TGI (UO-31 renal) of 36.9 µM. The TGI (HL-60(TB) leukemia) was over 100 µM, the TGI (HS 578T breast) was over 100 µM and the TGI (OVCAR-4 ovarian) was 45.5 µM. The TGI (NCI-H23 lung) was 54 µM, the TGI (T-47D breast) was over 100 µM and the TGI (SK-MEL-28 melanoma) was over 100 µM. It also gave a TGI (MOLT-4 leukemia) of over 100 µM, a TGI (CCRF-CEM leukemia) of over 100 µM and a TGI (OVCAR-8 ovarian) of over 100 µM. The TGI (M14 melanoma) was over 100 µM, the TGI (SK-MEL-2 melanoma) was over 100 µM and the TGI (NCI-H226 lung) was over 100 µM. It also gave a TGI (SF-268 CNS) of over 100 µM, a TGI (786-0 renal) of over 100 µM and a TGI (NCI-H522 lung) of 5.33 µM. For the same compound, the TGI (SF-295 CNS) was over 100 µM, the TGI (IGROV1 ovarian) was 97.1 µM and the TGI (CAKI-1 renal) was 37.5 µM. It also gave a TGI (NCI/ADR-RES ovarian) of over 100 µM, a TGI (BT-549 breast) of over 100 µM and a TGI (NCI-H460 lung) of over 100 µM.

For `Nc1nc(Cl)c(N=Nc2ccc(Cl)cc2)c(NCC2(CO)CCC2)n1`, the GI50 (HOP-62 NSCLC) was 42 µM, the TGI (HOP-62 NSCLC) was 82.6 µM and the GI50 (U251 CNS) was 41.1 µM. The GI50 (HOP-92 NSCLC) was 14.9 µM, the TGI (HOP-92 NSCLC) was 64.9 µM and the GI50 (HCT-116 colon) was 36.8 µM. The GI50 (MCF7 breast) was 25.3 µM, the GI50 (ACHN renal) was 41 µM and the GI50 (EKVX NSCLC) was 21.7 µM. For the same compound, the GI50 (SNB-19 CNS) was 33.7 µM, the GI50 (SNB-75 CNS) was 7.05 µM and the TGI (SNB-75 CNS) was 30.1 µM. It also gave a GI50 (SK-OV-3 ovarian) of 12.6 µM, a GI50 (MDA-MB-231 breast) of 8.74 µM and a TGI (MDA-MB-231 breast) of 51.1 µM. The GI50 (RXF 393 renal) was 36.5 µM, the TGI (RXF 393 renal) was 61.6 µM and the GI50 (LOX IMVI melanoma) was 41 µM. It also gave a GI50 (SF-539 CNS) of 90.7 µM, a GI50 (HS 578T breast) of 32.9 µM and a GI50 (NCI-H23 lung) of 48 µM. For the same compound, the GI50 (T-47D breast) was 26.4 µM, the GI50 (OVCAR-8 ovarian) was 26.8 µM and the TGI (OVCAR-8 ovarian) was 88.8 µM. The GI50 (M14 melanoma) was 98.9 µM, the GI50 (SK-MEL-2 melanoma) was 89.3 µM and the GI50 (NCI-H226 lung) was 77 µM. It also gave a GI50 (SF-268 CNS) of 46.3 µM, a GI50 (786-0 renal) of 10.2 µM and a GI50 (SF-295 CNS) of 49.4 µM. For the same compound, the GI50 (CAKI-1 renal) was 2.27 µM, the GI50 (NCI/ADR-RES ovarian) was 41.8 µM and the GI50 (BT-549 breast) was 49.8 µM.
